Data on 26 molecules can be found in PubChem BioAssay (NCI).

Holding throughout (experiment): NCI tumour cell line growth inhibition, 48 h
Assay [1] deals with RXF 393 renal.
Assay [2] concerns HT29 colon.
The test system of assay [3] is UACC-257 melanoma.
The subject of assay [4] is SF-268 CNS.
The test system of assay [5] is OVCAR-8 ovarian.
The subject of assay [6] is RPMI-8226 leukemia.
Assay [7] deals with SK-MEL-5 melanoma.
Assay [8] concerns HOP-62 NSCLC.
For assay [9], the system named is CCRF-CEM leukemia.
Assay [10] has as its system ACHN renal.

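These data come from cells grown in 96-well plates and exposed to compound for 48 hours at five concentrations. Here, GI50 denotes the concentration required for 50% inhibition of growth. TGI: concentration producing complete growth inhibition.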

In the case of `OCCOCn1nc(-c2ccccc2)nc1-c1cnccn1`, the TGI in assay [1], in assay [2], in assay [3], in [4], in [5] and in assay [6] was above 100 µM each time. Further, the TGI in assay [7], in assay [8] and in assay [9] was above 100 µM each time.

With `COC(=O)C(=O)C(C(=O)C(=O)Nc1ccc(Cl)cc1Cl)c1nc2ccc(Cl)cc2[nH]c1=O` (centres undefined), the TGI in [2], in [3], in [4], in [10], in assay [5] and in assay [7] was above 100 µM throughout. Besides, the TGI in assay [8] and in [9] was above 100 µM each time.

As to `O=C(N/C(=C\c1cc(Cl)ccc1Cl)c1nc2ccccc2[nH]1)c1ccccc1`, the TGI in assay [1] was 64.4 µM; in assay [2] it was 29.8 µM; in [4], above 100 µM; in [10], above 100 µM; in assay [5] it was 46.9 µM; in [7] it was 53.3 µM. Moreover, in [9], the TGI was 88.3 µM.

Regarding `COc1cc(C=C2C(=O)OC(C)(C)OC2=O)cc(OC)c1OC`, the TGI in assay [1], in [2], in [3], in [4], in assay [10] and in assay [5] was above 100 µM in each case. In addition, the TGI in assay [6], in [7] and in [9] was above 100 µM throughout.

In the case of `COc1cc(OC)cc(-c2n[nH]nc2-c2ccc3c(c2)OCO3)c1`, the GI50 in [2] is 0.392 µM; in [3] it was 18.2 µM; in assay [4] it was 2.37 µM; in assay [10], 0.705 µM; in assay [5] it was 0.512 µM; in assay [6] it was 0.326 µM. The results for the GI50 in assay [7], in assay [8] and in [9] were 0.168 µM, 0.336 µM and 0.282 µM, respectively. Further, the TGI in [2] was 12.5 µM; in assay [3], 70.4 µM; in assay [4], above 100 µM; in assay [10], above 100 µM; in assay [5], 31.3 µM; in assay [6], 22.1 µM. For the same molecule, the TGI in assay [7] was 11.9 µM; in [8], above 100 µM; in assay [9], above 100 µM.

Take `COc1ccc(/C(C#N)=C/c2nc3c(N4CCOCC4)nc(Cl)nc3n2C)cc1OC`: the GI50 was below 0.01 µM in assay [2]; 1.29 µM in assay [3]; 0.0173 µM in assay [4]; below 0.01 µM in [10]; below 0.01 µM in [5]; below 0.01 µM in assay [6]. Besides, the results for the GI50 in assay [7], in assay [8] and in [9] were below 0.0108 µM, below 0.01 µM and below 0.01 µM, respectively. In addition, the TGI is 1.4 µM in assay [2]; 2.87 µM in [3]; 2.23 µM in assay [4]; 1.25 µM in assay [10]; 3.97 µM in assay [5]; 0.315 µM in assay [6]. Also, the TGI in assay [7] turned out to be 0.0347 µM; in assay [8] it was 2.53 µM; in assay [9], 0.146 µM.

Turning to `COc1ccc(OC)c(-c2cc(-c3ccc(Cl)cc3)nn2-c2ccc(S(N)(=O)=O)cc2)c1`, the GI50 in [3] is 3.98 µM; in [4], 13.9 µM; in assay [5], 11.3 µM; in [6], 1.72 µM; in assay [7] it was 14.5 µM. The TGI turned out to be 16.4 µM in assay [3]; 32.9 µM in assay [4]; 34.6 µM in assay [5]; 3.72 µM in assay [6]; 35.4 µM in assay [7].

With `CC(C)n1c2c(c3ccccc3c1=O)C(=O)c1ccccc1-2`, the TGI in [2], in assay [3], in assay [4], in assay [5], in assay [6] and in assay [7] was above 100 µM each time. Also, the TGI in [8] and in assay [9] was above 100 µM in each case.

Consider `COc1ncn(C2C=C(CO)C(O)C2O)c(=O)n1` (centres undefined), for which the TGI in [1], in [3], in [4], in assay [10], in assay [5] and in assay [6] was above 100 µM each time. The TGI in assay [7] and in [8] was above 100 µM throughout.

Turning to `CCSc1sc(-c2ccc(C)cc2)nc1[P+](c1ccccc1)(c1ccccc1)c1ccccc1`, the GI50 in [1] is 0.255 µM; in assay [3] it was 0.294 µM; in assay [4], 0.328 µM; in assay [10], 0.285 µM; in assay [5], 0.313 µM; in [6], 0.13 µM. The results for the GI50 in assay [7], in assay [8] and in assay [9] were 0.174 µM, 0.316 µM and 0.377 µM, respectively. The TGI came to 1.23 µM in [1]; 1.05 µM in assay [3]; 1.43 µM in assay [4]; 1.01 µM in [10]; 1.89 µM in assay [5]; 0.477 µM in assay [6]. Besides, the TGI in assay [7] was determined as 0.321 µM; in [8], 1.38 µM; in [9] it was 2.14 µM.

For `Cc1cc(C)cc(NC(=O)CCC(=O)C2CCC/C2=N\NC(=O)C(=O)NN)c1` (centres undefined), the TGI in [1], in [2], in [3], in assay [4], in assay [10] and in [5] was above 100 µM in each case. The TGI in [6], in assay [7] and in assay [9] was above 100 µM throughout.

For the molecule `COc1cc2c3c(c1OC)C1(C=CC(=O)C=C1)CC3N(C(=O)OC(C)(C)C(Cl)(Cl)Cl)CC2` (centres undefined), the TGI in assay [1] was 18.5 µM; in assay [2], 24.4 µM; in assay [3], 26.2 µM; in assay [4], 31.8 µM; in assay [5], 31.5 µM; in [6], 9.04 µM. The TGI in [7] turned out to be 20.7 µM; in assay [8] it was 31.9 µM; in assay [9] it was 87.7 µM.

Consider `NC(N)=Nc1nc2cc(N)ccc2o1`, for which the TGI in assay [2], in [3], in assay [4], in assay [10], in assay [5] and in assay [8] was above 100 µM each time. Also, in assay [9], the TGI is above 100 µM.

For `O=C1/C=C(/c2ccc(O)cc2)[C@H](O)Cc2ccc(OC3OC(CO)C(O)C(O)C3O)cc2O1` (some centres undefined) (tested in a mixture with another compound), the TGI in assay [2], in assay [3], in assay [4], in assay [10], in assay [5] and in [6] was above 100 µM throughout. Moreover, the TGI in [7] and in assay [8] was above 100 µM each time.

For `CC(C)(C)NC(=O)C12C3C4C1C1C2C3C41I` (centres undefined), the TGI in [2], in [3], in assay [5], in assay [6] and in assay [9] was above 100 µM in each case.

Turning to `CC(=O)OCC1OC(n2c(-c3ccc(N)cc3)cc(-c3ccco3)c(C#N)c2=O)C(OC(C)=O)C(OC(C)=O)C1OC(C)=O` (centres undefined), the TGI in assay [1], in assay [2], in assay [3], in assay [4], in assay [10] and in [5] was above 50 µM in each case. For the same molecule, the TGI in assay [7] and in [8] was above 50 µM throughout.

In the case of `Cc1ccc(NC(=O)C(=O)C2C(=O)C3=C(CC2(C)C)NC2C=CC=CC2S3)c(C)c1` (centres undefined), the TGI in assay [1], in assay [2], in assay [3], in assay [4], in assay [10] and in assay [5] was above 100 µM each time. Further, the TGI in assay [7] and in assay [9] was above 100 µM each time.

With `O=C(CCCCCn1c2ccccc2c2c3c(c4c5ccccc5[nH]c4c21)C(=O)N(O)C3=O)N1CCOCC1`, the GI50 in [1] is 1.81 µM; in assay [2], 2.42 µM; in [3], 3.19 µM; in assay [5] it was 2.84 µM; in assay [6] it was 1.97 µM; in [7] it was 1.64 µM. Besides, the GI50 in [8] was 2.77 µM; in assay [9], 1.43 µM. Also, the TGI in assay [1] stood at 3.37 µM; in assay [2], 5.88 µM; in assay [3] it was 7.76 µM; in [5], 7.86 µM; in assay [6] it was 5.43 µM; in assay [7] it was 3.06 µM. For the same molecule, the TGI in assay [8] came out at 6.74 µM; in assay [9], 4.93 µM.

On to `C[N+](C)(C)CC(=O)NC(=O)N/N=C\C(CC#N)CN(Cc1ccccc1)Cc1ccccc1` (centres undefined), for which the TGI in assay [1], in [2], in assay [3], in [4], in assay [10] and in [5] was above 100 µM each time. Besides, the TGI in assay [7], in assay [8] and in assay [9] was above 100 µM throughout.

Take `COc1cc(OC)c(Oc2cccc(OC)c2OC)c(OC)c1`: the TGI in [2], in assay [3], in assay [4], in assay [10], in assay [5] and in assay [7] was above 100 µM throughout. The TGI in assay [8] and in [9] was above 100 µM each time.

Consider `N#CC1=C(N)NC(=S)NC1c1ccc(-c2ccc(-c3nc4ccccc4s3)cc2)o1` (centres undefined), for which the GI50 in assay [3] was 36.9 µM; in [4], 28.9 µM; in assay [10] it was 28.1 µM; in assay [5] it was 35.1 µM; in [6] it was 32.8 µM; in assay [7] it was 14.6 µM. Besides, in assay [8], the GI50 was above 50 µM. The TGI in assay [3] was above 50 µM; in [4], above 50 µM; in assay [10] it was above 50 µM; in assay [5], above 50 µM; in assay [6] it was above 50 µM; in assay [7], 39.4 µM. Besides, the TGI in [8] is above 50 µM.

For the molecule `COc1ccc2c(c1)C(CCN)C(=O)N2` (centres undefined), the TGI in [2], in [3], in assay [4], in [10], in assay [5] and in [6] was above 100 µM throughout. Moreover, the TGI in assay [7], in assay [8] and in assay [9] was above 100 µM each time.

`O=C(/C=C/c1ccccc1O)CC(=O)/C=C/c1ccccc1O`: the TGI is 9.06 µM in assay [1]; 18.7 µM in [3]; 25.9 µM in [10]; 23.3 µM in assay [5]; 15.5 µM in assay [6]; 14.6 µM in [7]. Further, the results for the TGI in [8] and in assay [9] were 19.4 µM and above 26.2 µM, respectively.

In the case of `CCOC(=O)C(=C=Cc1cccs1)C(=O)c1ccccc1`, the TGI in assay [2] came to 34.5 µM; in assay [3], 25.5 µM; in assay [4] it was 33.2 µM; in [10] it was 33.3 µM; in assay [5] it was 29.3 µM; in assay [6], 44.5 µM. For the same molecule, the TGI was 10.5 µM in [7], 33.9 µM in assay [8] and above 100 µM in [9].

`COc1cc2c(cc1OC)[C@@H]1[C@H](C2=O)c2ccc([N+](=O)[O-])cc2C(=O)N1CCCBr`: the GI50 was 0.285 µM in [1]; 0.35 µM in assay [2]; 0.0737 µM in [3]; 0.0169 µM in [5]; 0.145 µM in [6]; below 0.01 µM in assay [7]. For the same molecule, the GI50 was below 0.0277 µM in [8] and below 0.01 µM in assay [9]. Moreover, the TGI was 2.22 µM in assay [1]; 0.893 µM in [3]; above 39.4 µM in assay [4]; 2.04 µM in assay [5]; 1.87 µM in assay [6]; 0.123 µM in assay [7]. In assay [8], this molecule gave a TGI of 0.709 µM.

With `COc1ccc2c(c1)Cc1cc(N=[N+]([O-])c3ccc4c(c3)Cc3cc(OC)ccc3-4)ccc1-2`, the TGI is above 100 µM in assay [1]; 32.9 µM in assay [2]; 52.7 µM in assay [3]; above 100 µM in assay [4]; above 100 µM in assay [10]; above 100 µM in assay [5]. In addition, the TGI in [7] is 42.8 µM; in assay [8] it was above 100 µM; in assay [9], above 100 µM.
